pEC50, pIC50: −log10 of the molar value.
How the values were obtained:
[1] = target: T1, HASPIN (Homo sapiens, UniProt Q8TF76); assay: Cellular HASPIN inhibition assay (phosphorylation of H3T3, western blot); format: cell-based; conditions: MV4:11 cells, 8 hours of treatment, read-out: pH3T3 EC50
T1 sequence (Q8TF76 1-798): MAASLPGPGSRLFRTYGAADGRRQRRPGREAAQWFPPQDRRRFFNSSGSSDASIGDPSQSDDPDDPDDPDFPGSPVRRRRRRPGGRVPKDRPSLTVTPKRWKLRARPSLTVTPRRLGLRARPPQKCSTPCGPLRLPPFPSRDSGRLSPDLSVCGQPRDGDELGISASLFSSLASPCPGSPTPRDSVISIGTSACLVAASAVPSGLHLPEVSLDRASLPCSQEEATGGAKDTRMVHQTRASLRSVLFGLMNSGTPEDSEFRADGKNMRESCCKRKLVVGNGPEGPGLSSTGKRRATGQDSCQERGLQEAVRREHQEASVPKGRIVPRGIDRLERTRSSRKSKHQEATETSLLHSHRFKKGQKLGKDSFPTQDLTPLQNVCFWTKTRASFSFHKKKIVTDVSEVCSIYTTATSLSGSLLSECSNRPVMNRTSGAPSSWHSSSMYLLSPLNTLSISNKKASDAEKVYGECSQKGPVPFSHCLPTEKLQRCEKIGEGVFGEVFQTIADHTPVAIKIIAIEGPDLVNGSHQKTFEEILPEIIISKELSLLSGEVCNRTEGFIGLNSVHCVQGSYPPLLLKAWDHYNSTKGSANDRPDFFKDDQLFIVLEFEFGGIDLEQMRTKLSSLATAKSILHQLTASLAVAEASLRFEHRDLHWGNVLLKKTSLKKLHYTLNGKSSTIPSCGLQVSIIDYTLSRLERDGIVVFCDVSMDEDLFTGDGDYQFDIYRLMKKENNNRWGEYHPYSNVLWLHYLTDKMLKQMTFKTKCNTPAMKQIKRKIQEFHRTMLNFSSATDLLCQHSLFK
Protocol: Cellular HASPIN Inhibition Assay (phosphorylation of H3T3): Compounds can be screened for their ability to inhibit intracellular HASPIN using a western blot assay to detect phosphorylation of the HASPIN substrate H3T3 in synchronized cells. MV4:11 cells are plated at 400000 cells per well in 6-well plates in RPMI media supplemented with 10% foetal bovine serum, Penicillin/Streptomycin solution diluted 1: 100, and fungizone, and allowed to adhere overnight at 37 °C in 5% CO2. Then, compounds are added to the cell media from a final concentration of 10 µM in 10-fold serial dilutions and the cells are incubated at 37 °C in 5% CO2. After 8 hours of treatment with the compounds, the cells are washed in PBS, lysed adding 100 µl of protein lysis buffer (62.5 mM Tris pH 6.8 al 6.25%, 2% SDS y 10% glycerol) incubation 10 minutes at room temperature and heating at 95 °C 10 min. The protein content of the lysates is determined by DC protein assay. The proteins are resolved by SDS-PAGE and transferred to nitrocellulose membrane. The membranes are incubated overnight at 4 °C with antibodies specific for H3, phosphothreonine-3 H3 they are washed and then incubated with IRDye800 conjugated antimouse and Alexa Fluor 680 goat anti-rabbit IgG secondary antibodies. The bands are visualized and quantified using an Odyssey infrared imaging system. The percentage of H3 phosphorylation is finally plotted against concentration for each compound and EC50s for intracellular HASPIN inhibition are calculated using a software platform for screening data management.

[2] = target: T1, HASPIN; assay: HASPIN biochemical assay (ADP-Glo, HASPIN autophosphorylation); conditions: ATP 150 µM, 60 min at 30 °C
Protocol: HASPIN biochemical Assay: The biochemical assay to measure HASPIN activity relies on the ADP-Glo™ assay kit (Promega) that determines the amount of ADP as direct product of the kinase enzyme activity. Assay conditions were as indicated by the kit manufacturers with the following adaptations for the kinase activity step: Kinase assay buffer and assay volume (15 mM HEPES pH 7.5, 20 mM NaCl, 1 mM EGTA, 0.02% TWEEN 20, 10 mM MgCl2, 0.1 mg/mL BGG)/25 µL assay volume). Incubation time and temperature: 60 min at 30 °C. HASPIN final concentration: 0.9 µg/mL. ATP final concentration: 150 µM. HASPIN autophosphorylation was measured. Assays were performed in 384-well plates. The final outcome of the coupled reactions provided by the kit is the release of […] and has been measured with a multilabel HTS counter Victor V / Envision. Values were normalized against the control activity included (100% HASPIN activity, without compound). Values were plotted against the inhibitor concentration and fit to a sigmoid dose-response curve using Activity base by IDBS software.

Structure (SMILES)	pEC50 [1]	pIC50 [2]
NC(=O)c1cn2cc(-c3ccncc3F)nc(NCC3CCNCC3)c2n1 [Compound 27, 6-(3-Fluoro-pyridin-4-yl)-8-[(piperidin-4-ylmethyl)-amino]-imidazo[1,2-a]pyrazine-2-carboxylic acid amide]	> 7.30	8.03
CNC(=O)c1cn2cc(-c3ccncc3)nc(NCC3CCNCC3)c2n1 [Compound 4, 8-[(Piperidin-4-ylmethyl)-amino]-6-pyridin-4-yl-imidazo[1,2-a]pyrazine-2-carboxylic acid methylamide]	> 7.30	7.69
NC(=O)c1cn2cc(-c3ccnc(Cl)c3)nc(NCC3CCNCC3)c2n1 [Compound 3, 6-(2-Chloro-pyridin-4-yl)-8-[(piperidin-4-ylmethyl)-amino]-imidazo[1,2-a]pyrazine-2-carboxylic acid amide]	> 7.30	7.34
N#CC1(CNc2nc(-c3ccncc3)cn3cc(C(N)=O)nc23)CCNCC1 [Compound 8, 8-[(4-Cyano-piperidin-4-ylmethyl)-amino]-6-pyridin-4-yl-imidazo[1,2-a]pyrazine-2-carboxylic acid amide]	> 7.30	7.71

Now from value to compound:

pEC50 [1]	pIC50 [2]	Structure (SMILES)
> 7.30	7.61	Cc1cc(-c2cn3cc(C(N)=O)nc3c(NCC3CCNCC3)n2)ccn1 [Compound 36, 6-(2-Methyl-pyridin-4-yl)-8-[(piperidin-4-ylmethyl)-amino]-imidazo[1,2-a]pyrazine-2-carboxylic acid amide]
> 7.30	8.12	CNC(=O)c1cn2cc(-c3ccncc3F)nc(NCC3(C#N)CCNCC3)c2n1 [Compound 32, 8-[(4-Cyano-piperidin-4-ylmethyl)-amino]-6-(3-fluoro-pyridin-4-yl)-imidazo[1,2-a]pyrazine-2-carboxylic acid methylamide]
> 7.30	7.98	NC(=O)c1cn2cc(-c3ccncc3F)nc(NCC3(F)CCNCC3)c2n1 [Compound 33, 8-[(4-Fluoro-piperidin-4-ylmethyl)-amino]-6-(3-fluoro-pyridin-4-yl)-imidazo[1,2-a]pyrazine-2-carboxylic acid amide]
